Experimental data reported in patent US12109308B2, “Aqueous formulation comprising 1-(4-{[4-(dimethylamino)piperidin-1-yljcarbonyl}phenyl)-3-[4-(4,6-dimorpholin-4-yl-1,3,5-triazin-2-yl)phenyl]urea” (Pfizer Inc., priority 2018, dated 2024).

Legend:
[1] = only with lactic acid and orthophosphoric acid, of the many acids tested; no cyclodextrin; cited from earlier work
[2] = Stability and water solubility of the crystalline free base (background statement); assay type: physicochemical

## CN(C)C1CCN(C(=O)c2ccc(NC(=O)Nc3ccc(-c4nc(N5CCOCC5)nc(N5CCOCC5)n4)cc3)cc2)CC1 [1-(4-{[4-(Dimethylamino)piperidin-1-yl]carbonyl}phenyl)-3-[4-(4,6-dimorpholin-4-yl-1,3,5-triazin-2-yl)phenyl]urea]
[1]
  concentration achieved as a clear solution: ≥ 3000 µg/mL
[2]; crystalline form, 25° C. and 60% Relative Humidity (RH)
  chemically and physically stable for (time): up to 3 years
[2]; for an aqueous solution formulation for intravenous or parenteral administration at therapeutic dosage levels
  water solubility of the free base: insufficiently water soluble
